In patent US8080665B2 (Chugai Seiyaku Kabushiki Kaisha, priority 2003, dated 2011):

How the values were obtained:
[1] = biological target: T1, hMCD (Homo sapiens, UniProt O95822); experiment: In vitro MCD inhibitory assay; format: biochemical; settings: read-out: Ki, in vitro MCD inhibitory activities
T1 sequence (O95822 40-493): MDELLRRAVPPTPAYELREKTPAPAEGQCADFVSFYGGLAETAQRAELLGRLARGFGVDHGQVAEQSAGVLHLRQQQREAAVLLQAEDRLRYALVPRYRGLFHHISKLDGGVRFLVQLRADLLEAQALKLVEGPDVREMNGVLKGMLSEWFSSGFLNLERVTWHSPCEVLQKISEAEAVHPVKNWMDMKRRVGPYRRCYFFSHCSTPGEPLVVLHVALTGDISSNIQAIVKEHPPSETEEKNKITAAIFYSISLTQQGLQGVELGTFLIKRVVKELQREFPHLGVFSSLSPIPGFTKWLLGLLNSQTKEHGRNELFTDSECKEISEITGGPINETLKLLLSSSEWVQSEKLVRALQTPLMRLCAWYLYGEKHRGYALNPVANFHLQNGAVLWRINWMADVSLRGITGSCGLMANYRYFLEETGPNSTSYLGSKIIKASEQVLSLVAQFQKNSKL
Description: In Vitro MCD Inhibitory Assay
As shown in eq. 1-3, the establishment of the kinetic equilibrium between malate/NAD and oxaloacetate/NADH was catalyzed by malic dehydrogenase (eq. 2). […] The accumulation of NADH can be continuously followed by monitoring the increase of fluorescence emission at 460 nm on a fluorescence plate reader. The fluorescence plate reader was calibrated using the authentic acetyl-CoA from Sigma. For a typical 96-well plate assay, the increase in the fluorescence emission (λex=360 nm, λem=460 nm, for NADH) in each well was used to calculate the initial velocity of hMCD. Each 50 μL assay contained 10 mM phosphate buffered saline (Sigma), pH 7.4, 0.05% Tween-20, 25 mM K2HPO4—KH2PO4 (Sigma), 2 mM Malate (Sigma), 2 mM NAD (Boehringer Mannheim), 0.786 units of MD (Roche Chemicals), 0.028 unit of CS (Roche Chemicals), 5-10 nM hMCD, and varying amounts of MCA substrate. Assays were initiated by the addition of MCA, and the rates were corrected for the background rate determined in the absence of hMCD.

[2] = test system: Isolated Working Rat Hearts; experiment: Glucose oxidation in isolated working rat hearts
Description: Isolated Working Rat Heart Assay Protocol
Isolated working hearts from male Sprague-Dawley rats (300-350 g) are subjected to a 60-minute aerobic perfusion period. The working hearts are perfused with 95% O2, 5% CO2 with a modified Krebs-Henseleit solution containing 5 mM glucose; 100 μU/mL insulin; 3% fatty acid-free BSA; 2.5 mM free Ca^2+, and 0.4 to 1.2 mmol/L palmitate (Kantor et al., Circulation Research 86:580-588 (2000)). The test compound is added 5 minutes before the perfusion period. DMSO (0.05%) is used as control.
Measurement of Glucose Oxidation Rates
Samples were taken at 10-minute intervals for measurements of experimental parameters. Glucose oxidation rates are determined by the quantitative collection of ^14CO2 produced by hearts perfused with buffer containing [U14]-Glucose (R. Barr and G. Lopaschuk, in “Measurement of cardiovascular function”, McNeill, J. H. ed., Chapter 2, CRC press, New York (1997)). After the perfusion, the ^14CO2 from the perfusae is subsequently released by injecting 1 mL of perfusate into sealed test tube containing 1 mL of 9NH2SO4. The tube was sealed with a rubber stopper attached to a scintillation vial containing a piece of filter papers saturated with 300 μl of hyamine hydroxide. The scintillation vials with filter papers were then removed and Ecolite Scintillation Fluid added. Samples were counted by standard procedures as described above. Average rates of glucose oxidation for each phase of perfusion are expressed as μmol/min/g dry wt as described above.
Active compounds are characterized by an increase in glucose oxidation and/or decrease in fatty acid oxidation as compared to the control experiments (DMSO). The compounds that caused statistically significant increases in glucose oxidation and/or decrease in fatty acid oxidation are considered to be active. Statistical significance was calculated using the Student's t test for paired or unpaired samples, as appropriate. The results with P<0.05 are considered to be statistically significant.

[3] = test system: muscle (M) isoform of CPT-I; settings: read-out: IC50 of malonyl-CoA inhibition of CPT-I; cited from earlier work
[4] = test system: breast carcinoma cells; settings: cited from earlier work

Which Ki [1] does the source give for `CC(C)N(C(=O)NC1CCN(S(=O)(=O)c2cnc(Cl)c(Br)c2)CC1)c1ccc2nc(S)sc2c1` [CBM-000302426] here?
Its Ki is 19.3 nM.

For `CC(=O)c1ccc(S(=O)(=O)N2CCC(NC(=O)N(c3ccc4nc(S)sc4c3)C(C)C)CC2)cc1` [CBM-000302389], which Ki [1] is on record?
Its Ki is 84.3 nM.

With `CCCC(=O)N1CCC(NC(=O)N(c2ccc3nc(S)sc3c2)C(C)C)CC1` [CBM-000302314] as the molecule, how does the Ki [1] read?
Its Ki is 58.5 nM.

With `CC(C)N(C(=O)NC1CCN(S(=O)(=O)c2ccc(F)cc2)CC1)c1ccc2nc(S)sc2c1` [CBM-000302425] as the molecule, how does the Ki [1] read?
The Ki was 1.4 nM.

For `CC(C)N(C(=O)NC1CCN(C(=O)c2ccc(F)cc2)CC1)c1ccc2nc(S)sc2c1` [CBM-000302348], which Ki [1] is on record?
The Ki was 40.7 nM.

With `CC(C)N(C(=O)NC1CCN(S(=O)(=O)c2cccc(C(F)(F)F)c2)CC1)c1ccc2nc(S)sc2c1` [CBM-000302280] as the molecule, how does the “GOX (%), glucose oxidation rate relative to DMSO (100%)” value [2] read?
Its value is 683%.

And the Ki [1]?
Its Ki is 2.6 nM.

For `CC(C)CCC(=O)N1CCC(NC(=O)N(c2ccc3nc(S)sc3c2)C(C)C)CC1` [CBM-000302313, 1-isopropyl-1-(2-mercapto-benzothiazole-6-yl)-3-[1-(4-methyl-pentanolyl)-piperidin-4-yl]-urea], which Ki [1] is on record?
The Ki was 23.5 nM.

With `COc1ccc(C(=O)N2CCC(NC(=O)N(c3ccc4nc(S)sc4c3)C(C)C)CC2)cc1` [CBM-000302359] as the molecule, how does the Ki [1] read?
The Ki was 7.2 nM.

Which Ki [1] does the source give for `COC(=O)CCC(=O)N1CCC(NC(=O)N(c2ccc3nc(S)sc3c2)C(C)C)CC1` [CBM-000302316] here?
Its Ki is 99.6 nM.

Which Ki [1] does the source give for `CC(C)N(C(=O)NC1CCN(S(=O)(=O)c2ccc(C(F)(F)F)cc2)CC1)c1ccc2nc(S)sc2c1` [CBM-000302279] here?
Its Ki is 61.6 nM.

Which Ki [1] does the source give for `CC(C)N(C(=O)NC1CCN(S(=O)(=O)c2ccc(F)c(Cl)c2)CC1)c1ccc2nc(S)sc2c1` [CBM-000302406] here?
Its Ki is 1.4 nM.

Which “GOX (%), glucose oxidation rate relative to DMSO (100%)” value [2] does the source give for `CC(C)N(C(=O)NC1CCN(S(=O)(=O)c2cccc(C#N)c2)CC1)c1ccc2nc(S)sc2c1` [CBM-000302343] here?
Its value is 177%.

What about the Ki [1] of the same molecule?
Its Ki is 3.8 nM.

Which Ki [1] does the source give for `CCCCOc1ccc(C(=O)N2CCC(NC(=O)N(c3ccc4nc(S)sc4c3)C(C)C)CC2)cc1` [CBM-000302216] here?
Its Ki is 88.1 nM.

Which Ki [1] does the source give for `COc1cccc(S(=O)(=O)N2CCC(NC(=O)N(c3ccc4nc(S)sc4c3)C(C)C)CC2)c1` [CBM-000302386] here?
Its Ki is 1.3 nM.

For `CC(C)N(C(=O)NC1CCN(S(=O)(=O)c2ccc(C#N)cc2)CC1)c1ccc2nc(S)sc2c1` [CBM-000302424], which Ki [1] is on record?
The Ki was 123 nM.

With `CCCNC(=O)N1CCC(NC(=O)N(c2ccc3nc(S)sc3c2)C(C)C)CC1` [CBM-000302274] as the molecule, how does the Ki [1] read?
Its Ki is 40.6 nM.

With `CC(C)N(C(=O)NC1CCN(CCCC(F)(F)F)CC1)c1ccc2nc(S)sc2c1` [CBM-000302182] as the molecule, how does the Ki [1] read?
The Ki was 80 nM.

Which Ki [1] does the source give for `CC(C)N(C(=O)NC1CCN(c2ccc(OC(F)(F)F)cc2)CC1)c1ccc2nc(S)sc2c1` [CBM-000302361] here?
The Ki was 87.2 nM.

Which “GOX (%), glucose oxidation rate relative to DMSO (100%)” value [2] does the source give for `CCCCS(=O)(=O)N1CCC(NC(=O)N(c2ccc3nc(S)sc3c2)C(C)C)CC1` [CBM-000302276] here?
The value was 310%.

And the Ki [1]?
The Ki was 0.7 nM.

For `CC(C)Oc1ccc(S(=O)(=O)N2CCC(NC(=O)N(c3ccc4nc(S)sc4c3)C(C)C)CC2)cc1` [CBM-000302368], which Ki [1] is on record?
The Ki was 624 nM.

For `CC(C)N(C(=O)NC1CCN(C(=O)CCC2CCCC2)CC1)c1ccc2nc(S)sc2c1` [CBM-000302275], which Ki [1] is on record?
The Ki was 22.4 nM.

Which Ki [1] does the source give for `CC(C)N(C(=O)NC1CCN(S(=O)(=O)Cc2ccccc2)CC1)c1ccc2nc(S)sc2c1` [CBM-000302405] here?
Its Ki is 7.8 nM.

Which Ki [1] does the source give for `CC(C)N(C(=O)NC1CCN(S(=O)(=O)c2ccc(C(C)(C)C)cc2)CC1)c1ccc2nc(S)sc2c1` [CBM-000302344] here?
The Ki was 133 nM.

Which results are given for `CC(C)N(C(=O)NC1CCN(S(=O)(=O)c2cccc(Cl)c2)CC1)c1ccc2nc(S)sc2c1` [CBM-000302342]?
GOX (%), glucose oxidation rate relative to DMSO (100%) [2]: 285%; Ki [1]: 0.7 nM

Which Ki [1] does the source give for `CC(C)N(C(=O)NC1CCN(C(=O)c2ccco2)CC1)c1ccc2nc(S)sc2c1` [CBM-000302360] here?
Its Ki is 24 nM.

With `CCCc1ccc(S(=O)(=O)N2CCC(NC(=O)N(c3ccc4nc(S)sc4c3)C(C)C)CC2)cc1` [CBM-000302384] as the molecule, how does the Ki [1] read?
Its Ki is 66.1 nM.

Which IC50 [3] does the source give for `CC(C)(COP(=O)(O)OP(=O)(O)OC[C@H]1O[C@@H](n2cnc3c(N)ncnc32)[C@H](O)[C@@H]1OP(=O)(O)O)[C@@H](O)C(=O)NCCC(=O)NCCSC(=O)CC(=O)O` [Malonyl-CoA] here?
Its IC50 is 30 nM.

With `CC(C)N(C(=O)NC1CCN(S(=O)(=O)c2ccccc2)CC1)c1ccc2nc(S)sc2c1` [CBM-000302277] as the molecule, how does the Ki [1] read?
The Ki was 2.8 nM.

With `CN(C(=O)NC1CCN(S(=O)(=O)c2ccccc2)CC1)c1ccc2nc(S)sc2c1` [CBM-000302281, 3-(1-Benzenesulfonyl-piperidin-4-yl)-1-(2-mercapto-benzothiazol-6-yl)-1-methyl-urea] as the molecule, how does the “GOX (%), glucose oxidation rate relative to DMSO (100%)” value [2] read?
The value was 190%.

For `CC(C)N(C(=O)NC1CCN(S(=O)(=O)C(C)C)CC1)c1ccc2nc(S)sc2c1` [CBM-000302215, 1-Isopropyl-1-(2-mercapto-benzothiazol-6-yl)-3-[1-(propane-2-sulfonyl)-piperidin-4-yl]-urea], which Ki [1] is on record?
Its Ki is 19.1 nM.

Which Ki [1] does the source give for `CC(C)c1ccc(S(=O)(=O)N2CCC(NC(=O)N(c3ccc4nc(S)sc4c3)C(C)C)CC2)cc1` [CBM-000302387] here?
Its Ki is 125 nM.

Which Ki [1] does the source give for `CC(C)N(C(=O)NC1CCN(S(=O)(=O)c2cccc(F)c2)CC1)c1ccc2nc(S)sc2c1` [CBM-000302369] here?
The Ki was 2.8 nM.

Which Ki [1] does the source give for `CC(C)N(C(=O)NC1CCN(C(=O)CCc2ccccc2)CC1)c1ccc2nc(S)sc2c1` [CBM-000302220] here?
Its Ki is 20.4 nM.

With `CCc1ccc(S(=O)(=O)N2CCC(NC(=O)N(c3ccc4nc(S)sc4c3)C(C)C)CC2)cc1` [CBM-000302404] as the molecule, how does the Ki [1] read?
Its Ki is 27.5 nM.

With `CC(C)N(C(=O)NC1CCN(C(=O)c2ccc(C(F)(F)F)cc2)CC1)c1ccc2nc(S)sc2c1` [CBM-000302217] as the molecule, how does the Ki [1] read?
Its Ki is 42.3 nM.

Which Ki [1] does the source give for `CC(C)N(C(=O)NC1CCN(C(=O)OCc2ccccc2)CC1)c1ccc2nc(S)sc2c1` [CBM-000302130] here?
Its Ki is 11 nM.

For `CC(C)N(C(=O)NC1CCN(C(=O)Nc2ccc(C(F)(F)F)cc2)CC1)c1ccc2nc(S)sc2c1` [CBM-000302219], which Ki [1] is on record?
Its Ki is 30.5 nM.

For `COc1ccc(S(=O)(=O)N2CCC(NC(=O)N(c3ccc4nc(S)sc4c3)C(C)C)CC2)cc1` [CBM-000302407], which Ki [1] is on record?
Its Ki is 17.5 nM.

With `CC(C)N(C(=O)NC1CCN(C(=O)COc2ccccc2)CC1)c1ccc2nc(S)sc2c1` [CBM-000302218] as the molecule, how does the “GOX (%), glucose oxidation rate relative to DMSO (100%)” value [2] read?
The value was 236%.

And the Ki [1]?
The Ki was 7.4 nM.

Which “malonyl-CoA level, % of the control” value [4] does the source give for `CCCCCCCCCCCCCCOc1ccc(C(=O)O)o1` [TOFA, 5-(tetradecyloxy)-2-furoic acid] here?
The value was 60%.

Which Ki [1] does the source give for `CC(C)N(C(=O)NC1CCN(S(=O)(=O)c2ccc(OC(F)(F)F)cc2)CC1)c1ccc2nc(S)sc2c1` [CBM-000302278] here?
The Ki was 105 nM.
